How the values were obtained:
[1] = system: nit attached to human hair strand; assay: Force required to dislodge a nit from a treated hair strand with a nit comb (INSTRON 1123 / CORREX Gram Gage); set-up: species or system lice; conditions: in vitro studies
Procedure: FIG. 1 is a diagram of the test setup whereby the force required to dislodge a nit from a human hair strand with a nit comb was measured.
FIG. 2 is a view showing the positioning of the nit and hair strand between the teeth of the comb shown in the test setup of FIG. 1.
The nit-loosening effectiveness of the novel compositions and the methods of treatment employing them were tested extensively using an INSTRON® 1123 Universal Testing Instrument (Instron Corp. Canton, Mass.). This instrument, in conjunction with a CORREX® Gram Gage (SPI, Switzerland), measures the force required to loosen nits from a hair shaft and records it on paper.
Laboratory tests were performed to measure the decrease in the combing force required to remove nits from hair strands treated with various compositions of the invention as compared with controls and with prior art egg-loosening compositions.
1. Hair strand 10 with nit 12 attached.
2. Fine tooth plastic nit comb 14.
3. Controls and test compositions.
4. INSTRON® 1123 Universal Testing Instrument 16 (Instron Corp., Canton, Mass.) with a 0-50 kg load cell 18.
5. CORREX® Gram Gage 20-2-15 g with flat tip (SPI, Switzerland).
6. Clamp plate assembly 22.
7. […]
e) Start the Instron, and the force required to loosen the nits will be recorded by the paper chart recorder 30, and can also be read on the Gram Gage 20. […]

[2] = cited from earlier work

## CO[C@H]1CO[C@H]2[C@@H]1OC[C@H]2OC [Dimethyl isosorbide, 1,4:3,6 dianhydro-2,5-di-o-methyl-D-glucitol]
[1]
  nit-loosening effectiveness (in words): good nit-loosening utility
[2]
  solubility (in words): water and oil-soluble
